Experimental data as given in US11413278B2, “Compounds and methods for promoting stress resistance” (priority 2015, dated 2022).
Like-named read-outs stand apart in the source and are kept apart here.

Tests used:
[1] = system: WI-38 cells; test: Long-term effects on cell viability (5 days, ATP; morphology, PI imaging); type: cell-based; details: 10 μM; for Luminescence signal for ATP measurement, day-1 Average / Luminescence signal for ATP measurement, day-2 Average / Luminescence signal for ATP measurement, day-3 Average / Luminescence signal for ATP measurement, day-4 Average / Luminescence signal for ATP measurement, day-5 Average / viability at 10 µM: Batch 1; for Luminescence signal for ATP measurement, day-1 Average / Luminescence signal for ATP measurement, day-2 Average / Luminescence signal for ATP measurement, day-3 Average / Luminescence signal for ATP measurement, day-4 Average / Luminescence signal for ATP measurement, day-5 Average: n = 6, day-0 luminescence = 320956 ± 24708; for viability at 10 µM: Homo sapiens, WI-38, 120 h, DMSO ctrl = 100.0%, read-out: ATP luminescence by day-5 normalized; for Luminescence signal for ATP measurement, day-5 Average / viability at 10 µM: day-5; for O = Potential toxicity / Q = Potential toxicity: human, 5 days;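 on Luminescence signal for ATP measurement, day-2 Average: compounds at 10 µM with ATP read daily over 5 days of treatment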;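 on Luminescence signal for ATP measurement, day-3 Average: compounds at 10 µM with ATP read daily over 5 days of treatment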;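 on Luminescence signal for ATP measurement, day-4 Average: compounds at 10 µM with ATP read daily over 5 days of treatment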;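 on Luminescence signal for ATP measurement, day-5 Average: compounds at 10 µM with ATP read daily over 5 days of treatment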
[2] = system: NRF2; test: qPCR analysis of NRF2-regulated genes; type: cell-based, human; details: for fold induction at 10 µM: Homo sapiens
How it was run: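 Expression of HMOX1, NQO1, GCLC and GSTM1 measured by qPCR relative to B2M, PPIA and GAPDH. Cells were WI-38 fibroblasts exposed 24 hrs to 10 μM compound, with RNA and cDNA prepared via Cells-to-Ct. Where stated, cells were first transfected 36 hrs with FOXO3 or NRF2 siRNA at 10 nM.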

[3] = Summary score for characterization of 38 core set hits; details: for D = Triple resistant: 2-point score, multiplex resistance (cadmium, MMS, H2O2); for S = Sum of Negative scores: human; for C = H2O2- & Cd-resistant: score, resistance to both H2O2 and cadmium
How it was run: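 Hits from a small-molecule screen for H2O2 resistance were scored across characterization assays. Multiplex resistance, FOXO3 and/or NRF2 activation and mTOR down-regulation each earned 2 points. C. elegans lifespan, tested in 4 to 6 independent trials, scored 0–2, and DNA-damaging or cytotoxic effects in cultured human cells cost one point.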

[4] = system: WI-38 cells; test: Propidium iodide (PI) cell-death imaging upon H2O2 stress; type: cell-based, human; details: for Assay 7: H2O2-resistant, at 10 uM, validated by propidium iodide (PI) cell-death imaging: w/H2O2, 3 hrs/4 hrs/5 hrs, YES/NO; for cytotoxicity at 10 µM: Homo sapiens, WI-38
[5] = system: human dermal fibroblast (HDF) primary cells; test: H2O2-resistance in primary human dermal fibroblasts; type: cell-based; details: for fold induction at 10 µM: Homo sapiens; for Assay 6: H2O2-resistant, at 10 uM, human dermal fibroblast (HDF) primary cells: YES/NO
[6] = WI-38 cells, 10 μM, 24 hrs, n=4, qPCR normalized by B2M, read-out: GCLC Normalized fold change
[7] = WI-38 cells, 10 μM, 24 hrs, n=4, qPCR normalized by B2M, read-out: GSTM1 Normalized fold change
[8] = WI-38 cells, 10 μM, 24 hrs, n=4, qPCR normalized by B2M, read-out: HMOX1 Normalized fold change
[9] = WI-38 cells, 10 μM, 24 hrs, n=4, qPCR normalized by B2M, read-out: NQO1 Normalized fold change
[10] = H2O2 3 hrs, 10 uM, n = 6, negative control 5.44% ± 0.79%, read-out: Percentage of propidium iodide-positive dead cells (under H2O2 stress treatment), 3 hrs
[11] = pre-treatment at 10 uM, 3.5 hours of H2O2, DMSO control 27.4% ± 6.5%, */**/*** = reduced by one/two/three standard deviations, read-out: Percentage of propidium iodide-positive dead cells (under H2O2 stress treatment), at 10 uM
[12] = Experiment 1, HDF cells, read-out: Experiment 1, HDF cells (under H2O2 stress treatment), at 10 uM (fold change)
[13] = Experiment 2, HDF cells, read-out: Experiment 2, HDF cells (under H2O2 stress treatment), at 10 uM (fold change)

Question: For CCc1ccccc1NC(=O)c1ccc([N+](=O)[O-])o1 [Gr-1C], which “Luminescence signal for ATP measurement, day-1 Average” value [1] is on record?
Answer: 421913

Question: And the “Luminescence signal for ATP measurement, day-2 Average” value [1]?
Answer: 545683

Question: What about the “Luminescence signal for ATP measurement, day-3 Average” value [1] of the same compound?
Answer: 662368

Question: What about the “Luminescence signal for ATP measurement, day-4 Average” value [1] of the same compound?
Answer: 875881

Question: What about the “Luminescence signal for ATP measurement, day-5 Average” value [1] of the same compound?
Answer: 819655

Question: What about the viability at 10 µM [1] of the same compound?
Answer: 79.8%

Question: And the “O = Potential toxicity” value [1]?
Answer: 1

Question: And the “Q = Potential toxicity” value [1]?
Answer: 0

Question: What about the “Induction of at least two NRF2-regulated genes (HMOX1, NQO1, GCLC, GSTM1)” value ([2]; 10 μM, 24 hrs, WI-38) of the same compound?
Answer: could induce expression of at least two genes

Question: And the “F = Potential NRF2 Activation” value ([2]; 2-point score)?
Answer: 0

Question: And the fold induction at 10 µM ([2]; 24 h, Assay 12(o), at 10 uM, qPCR, read-out: Induction of NRF2-regulated genes: GCLC normalized fold-change)?
Answer: 1.65

Question: What about the fold induction at 10 µM ([2]; 24 h, Assay 12(o), at 10 uM, qPCR, read-out: Induction of NRF2-regulated genes: NQO1 normalized fold-change) of the same compound?
Answer: 1.33

Question: And the fold induction at 10 µM ([2]; rounded fold change, WI-38 cells, 10 μM, 24 hrs (RP29 for Gr-4D), read-out: Summary of effects on NRF2-regulated genes: NQO1)?
Answer: 1.46

Question: And the fold induction at 10 µM ([2]; rounded fold change, WI-38 cells, 10 μM, 24 hrs, read-out: Summary of effects on NRF2-regulated genes: GCLC)?
Answer: 1.82

Question: And the fold induction at 10 µM ([2]; 10 μM, 24 hrs, WI-38 cells, qPCR, normalized to B2M, n = 4, read-out: GCLC expression, normalized fold change (NRF2-regulated gene))?
Answer: 1.82

Question: What about the fold induction at 10 µM ([2]; 10 μM, 24 hrs, WI-38 cells, qPCR, normalized to B2M, n = 4, read-out: NQO1 expression, normalized fold change (NRF2-regulated gene)) of the same compound?
Answer: 1.46

Question: And the fold induction at 10 µM [2, 6]?
Answer: 1.82

Question: And the fold induction at 10 µM [2, 7]?
Answer: 1.77

Question: And the fold induction at 10 µM [2, 8]?
Answer: 1.32

Question: What about the fold induction at 10 µM [2, 9] of the same compound?
Answer: 1.46

Question: And the “F = Potential NRF2 Activation” value ([2]; summary score)?
Answer: 0

Question: What about the “D = Triple resistant” value [3] of the same compound?
Answer: 0

Question: What about the “S = Sum of Negative scores” value [3] of the same compound?
Answer: 1

Question: And the “C = H2O2- & Cd-resistant” value [3]?
Answer: 1

Question: What about the “Assay 7: H2O2-resistant, at 10 uM, validated by propidium iodide (PI) cell-death imaging” value ([4]; 10 uM) of the same compound?
Answer: YES

Question: And the cytotoxicity at 10 µM [4, 10]?
Answer: 2.49%

Question: And the cytotoxicity at 10 µM ([4]; H2O2 4 hrs, 10 uM, n = 6, negative control 16.81% ± 1.42%, read-out: Percentage of propidium iodide-positive dead cells (under H2O2 stress treatment), 4 hrs)?
Answer: 3.1%

Question: And the cytotoxicity at 10 µM ([4]; H2O2 5 hrs, 10 uM, n = 6, negative control 22.50% ± 1.53%, read-out: Percentage of propidium iodide-positive dead cells (under H2O2 stress treatment), 5 hrs)?
Answer: 4.05%

Question: And the cytotoxicity at 10 µM [4, 11]?
Answer: 7.8%

Question: What about the fold induction at 10 µM [5, 12] of the same compound?
Answer: 15.2

Question: And the fold induction at 10 µM [5, 13]?
Answer: 49.1

Question: And the “Assay 6: H2O2-resistant, at 10 uM, human dermal fibroblast (HDF) primary cells” value [5]?
Answer: YES

Question: What does the source list for Oc1ncnc2sc3c(c12)CCC3 [O14]?
Answer: Luminescence signal for ATP measurement, day-1 Average [1]: 581665; Luminescence signal for ATP measurement, day-2 Average [1]: 685103; Luminescence signal for ATP measurement, day-3 Average [1]: 819423; Luminescence signal for ATP measurement, day-4 Average [1]: 1074238; Luminescence signal for ATP measurement, day-5 Average [1]: 1052551; viability at 10 µM [1]: 102%; O = Potential toxicity [1]: 0; Q = Potential toxicity [1]: 0; F = Potential NRF2 Activation ([2]; 2-point score): 0; fold induction at 10 µM [2, 6]: 1.07; fold induction at 10 µM [2, 7]: 1.53; fold induction at 10 µM [2, 8]: 1.11; fold induction at 10 µM [2, 9]: 0.871; F = Potential NRF2 Activation ([2]; summary score): 0; D = Triple resistant [3]: 0; S = Sum of Negative scores [3]: 0; C = H2O2- & Cd-resistant [3]: 1; Assay 7: H2O2-resistant, at 10 uM, validated by propidium iodide (PI) cell-death imaging ([4]; 10 uM): YES; cytotoxicity at 10 µM [4, 10]: 3.8%; cytotoxicity at 10 µM [4, 11]: 12.7%; fold induction at 10 µM [5, 12]: 2.87; fold induction at 10 µM [5, 13]: 4.73; Assay 6: H2O2-resistant, at 10 uM, human dermal fibroblast (HDF) primary cells [5]: YES
